Assay results as given in patent US4710500A, “1-(4'-fluorophenyl)-3,5-substituted indoles useful in the treatment of psychic disorders and pharmaceutical compositions thereof” (H. Lundbeck A/S, priority 1985, dated 1987).
Structures can show the parent of a compound that is named as a salt. Where two headings read alike, the source gives them in different places.

Legend:
[1] = test system: methylphenidate-induced gnawing; assay: Methylphenidate antagonism; format: in vivo, mice
Catalepsy = format: in vivo, rat
5-HT2 receptor = biological target: T1, 5-HT2 receptor (Rattus norvegicus, UniProt P14842); assay: Quipazine inhibition (head twitches); format: in vivo; settings: for Qvipaz. inh. ED50(sc): sc 2 hours before quipazine 15 umol/kg sc
T1 construct: from tissue; host or cells: living rats (in vivo), CNS
T1 sequence (P14842 whole entry): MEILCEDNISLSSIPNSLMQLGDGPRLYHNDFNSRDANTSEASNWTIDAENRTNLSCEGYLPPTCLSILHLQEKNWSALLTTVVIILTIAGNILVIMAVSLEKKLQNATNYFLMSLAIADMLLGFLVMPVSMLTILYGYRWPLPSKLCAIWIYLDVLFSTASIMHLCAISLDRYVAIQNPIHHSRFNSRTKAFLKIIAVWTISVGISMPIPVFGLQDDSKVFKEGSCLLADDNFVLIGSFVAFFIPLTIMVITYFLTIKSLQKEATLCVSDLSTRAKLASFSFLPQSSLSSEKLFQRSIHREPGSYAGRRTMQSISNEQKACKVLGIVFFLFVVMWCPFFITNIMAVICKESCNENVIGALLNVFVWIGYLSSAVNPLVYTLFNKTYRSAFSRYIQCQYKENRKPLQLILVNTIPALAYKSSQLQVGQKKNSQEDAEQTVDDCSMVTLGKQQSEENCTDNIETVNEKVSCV
Protocol: Quipazine and a number of other compounds, which increase 5-HT2 receptor activity in the CNS, induce a characteristic rapid shake (twitch) of the head. This response is inhibited by 5-HT2 receptor antagonists (Vetulani et al. 1980, Arnt et al. 1984).
The test compound or saline is injected subcutaneously 2 hours before subcutaneous injection of quipazine hemimalecate (15umol/kg). At least 3 dose groups, each consisting of at least 4 rats, are used. The rats are individually placed in observation cages (12×25 cm) and the number of head twitches are counted 30-40 min after quipazine administration. Inhibition of head twitches is expressed in per cent of the number of head twitches in the control group. ED 50 values are calculated by log-probit analysis.
Vetulani, J., B.B. Beduarczyk, K. Reichenberg and A. Rokost: Neuropharmacology 19, 155-158, […].
Arnt, J., J. Hyttel and J.-J. Larsen: Acta pharmacol. et toxicol. 55, 363-372, 1984.

[2] = biological target: T2, dopamine (DA) D-2 receptors (Rattus norvegicus, UniProt P61169); assay: 3H-spiroperidol binding, dopamine D-2 receptors in rat striatal membranes
T2 construct: DA D-2 receptors in rat striatal membranes; from tissue; host or cells: rat striatal membranes
T2 sequence (P61169 whole entry): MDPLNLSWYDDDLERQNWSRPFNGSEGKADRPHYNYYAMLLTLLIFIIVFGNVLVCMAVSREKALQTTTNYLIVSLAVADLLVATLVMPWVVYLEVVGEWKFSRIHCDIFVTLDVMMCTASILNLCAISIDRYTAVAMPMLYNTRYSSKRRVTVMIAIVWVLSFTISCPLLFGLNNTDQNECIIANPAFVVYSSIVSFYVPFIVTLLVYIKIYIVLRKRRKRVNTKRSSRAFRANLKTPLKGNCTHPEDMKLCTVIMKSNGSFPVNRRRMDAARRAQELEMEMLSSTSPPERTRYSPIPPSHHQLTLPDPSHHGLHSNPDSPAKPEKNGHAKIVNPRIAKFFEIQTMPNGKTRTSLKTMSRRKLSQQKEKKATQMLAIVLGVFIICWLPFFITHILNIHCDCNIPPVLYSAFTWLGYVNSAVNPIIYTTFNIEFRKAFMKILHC
Protocol: 4. ^3 H-spiroperidol bindings
The affinity of compounds to dopamine (DA) D-2 receptors and serotomin2 (5-HT2) receptors was determined by in vitro receptor binding technique.
Arnt, J., J. Hyttel and J.-J. Larsen: Acta pharmacol. et toxicol.

[3] = Mus musculus, ip; i.p. test substance; mice; methylphenidate s.c. 60 mg/kg; read-out: MePh Antg. ED50(ip)
[4] = read-out: Catalep. ED50(po) 1-6 h, po, rat, 1-6 h
[5] = Mus musculus, ip, read-out: MePh Antg. ED50(ip)
[6] = read-out: Catalep. ED50(po) 24 h, po, rat, 24 h
[7] = Rattus norvegicus, sc, 24 h, read-out: Catalep. ED50 (sc) 24 h
[8] = Rattus norvegicus, sc, read-out: Catalep. ED50 (sc) 1-6 h
[9] = Mus musculus, sc, read-out: MePh Antg. ED50 (sc)
[10] = Rattus norvegicus, po, 24 h, read-out: Catalep. ED50(po) 24 h
[11] = Rattus norvegicus, po, read-out: Catalep. ED50(po) 1-6 h
[12] = Mus musculus, sc; read-out: MePh Antg. ED50 (sc)

## OCCN1CCN(CC/C=C2/c3ccccc3Sc3ccc(C(F)(F)F)cc32)CC1 [Cis(Z)Flupentixol, reference compound]
[1]; i.p. test substance; mice; methylphenidate s.c. 60 mg/kg
  MePh Antg. ED50(ip): 0.14 µmol/kg
Catalepsy; po, rat, 1-6 h
  Catalep. ED50(po) 1-6 h: 2.4 µmol/kg
Catalepsy; po, rat, 24 h
  Catalep. ED50(po) 24 h: 19 µmol/kg
5-HT2 receptor
  Qvipaz. inh. ED50(sc): 0.042 µmol/kg

## O=C(CCCN1CCC(O)(c2ccc(Cl)cc2)CC1)c1ccc(F)cc1 [Haloperidol, reference compound]
[1]; [3]
  ED50: 0.11 µmol/kg
Catalepsy; [4]
  ED50: 1 µmol/kg

## Cc1ccc2c(c1)c(C1CCN(C)CC1)cn2-c1ccc(F)cc1 [Lu 21-037, 1-(4'-Fluorophenyl)-5-methyl-3-(1-methyl-4-piperidyl)-1H-indole, hydrobromide]
[1]; [3]
  ED50: 2.1 µmol/kg

## O=C1NCCN1CCN1CC=C(c2cn(-c3ccc(F)cc3)c3ccc(F)cc23)CC1 [Lu 21-046, oxalate]
[1]; [5]
  ED50: 48.1 µmol/kg

## CN1CCC(c2cn(-c3ccc(F)cc3)c3ccc(C(F)(F)F)cc23)CC1 [Lu 21-131, 1-(4'-Fluorophenyl)-3-(1-methyl-4-piperidyl)-5-trifluoromethyl-1H-indole, oxalate]
[1]; [3]
  ED50: 0.6 µmol/kg
Catalepsy; [4]
  ED50: 0.59 µmol/kg
Catalepsy; [6]
  ED50: 2.2 µmol/kg

## CC(C)CN1CC=C(c2cn(-c3ccc(F)cc3)c3ccc(Cl)cc23)CC1 [Lu 22-134, 5-Chloro-1-(4'-fluorophenyl)-3-(1-isobutyl-1,2,3,6-tetrahydropyridin-4-yl)-1H-indole, hydrobromide]
[1]; [5]
  ED50: 1.7 µmol/kg
Catalepsy; [7]
  ED50: > 2.7 µmol/kg
Catalepsy; [8]
  ED50: 2.7 µmol/kg
5-HT2 receptor
  Qvipaz. inh. ED50(sc): 2.5 µmol/kg
[2]
  IC50: 5.3 nM

## Fc1ccc(-n2cc(N3CCN(CCN4CCCC4=S)CC3)c3cc(C(F)(F)F)ccc32)cc1 [Lu 23-018, 1-(4'-Fluorophenyl)-3-(4-(2-(pyrrolidin-2-thion-1-yl)-ethyl)-1-piperazino)-5-trifluoromethyl-1H-indole]
[1]; [3]
  ED50: 53 µmol/kg
Catalepsy; [4]
  ED50: 1.2 µmol/kg
Catalepsy; [6]
  ED50: 2.9 µmol/kg

## O=C1NCCN1CCN1CC=C(c2cn(-c3ccc(F)cc3)c3ccccc23)CC1 [Lu 23-075, 1-(4'-Fluorophenyl)-3-(1-(2-imidazolidinon-1-ylethyl)-1,2,3,6-tetrahydropyridin-4-yl)-1H-indole, hydrochloride]
[1]; [9]
  ED50: 19 µmol/kg
5-HT2 receptor; sc, 2 h, read-out: Qvipaz. inh. ED50(sc)
  ED50: 0.18 µmol/kg

## CN1CC=C(c2cn(-c3ccc(F)cc3)c3ccccc23)CC1.Cl [Lu 23-083, 1-(4'-Fluorophenyl)-3-(1-methyl-1,2,3,6-tetrahydropyridin-4-yl)-1H-indole, hydrochloride]
[1]; [9]
  ED50: 1.3 µmol/kg
Catalepsy; [10]
  ED50: > 14 µmol/kg
Catalepsy; [11]
  ED50: 9.4 µmol/kg
5-HT2 receptor
  Qvipaz. inh. ED50(sc): 0.15 µmol/kg
[2]
  IC50: 1.8 nM

## O=[N+]([O-])c1ccc2c(c1)c(C1=CCNCC1)cn2-c1ccc(F)cc1 [Lu 23-133, 1-(4'-Fluorophenyl)-5-nitro-3-(1,2,3,6-tetrahydropyridin-4-yl)-1H-indole, maleate]
[1]; [9]
  ED50: 18 µmol/kg
Catalepsy; [10]
  ED50: > 11 µmol/kg
Catalepsy; [11]
  ED50: 11 µmol/kg
[2]
  IC50: 5.9 nM

## OCCN1CC=C(c2cn(-c3ccc(F)cc3)c3ccc(Cl)cc23)CC1 [Lu 23-146, 5-Chloro-1-(4'-fluorophenyl)-3-(1-(2-hydroxyethyl)-1,2,3,6-tetrahydropyridin-4-yl)-1H-indole, hydrochloride]
[1]; [9]
  ED50: 0.73 µmol/kg
Catalepsy; [8]
  ED50: 1 µmol/kg

## Fc1ccc(-n2cc(C3=CCNCC3)c3cc(Cl)ccc32)cc1 [Lu 23-147, 5-Chloro-1-(4'-fluorophenyl)-3-(1,2,3,6-tetrahydropridin-4-yl)-1H-indole]
[1]; [9]
  ED50: > 99 µmol/kg

## O=C1NCCN1CCN1CC=C(c2cn(-c3ccc(F)cc3)c3ccc(Cl)cc23)CC1 [Lu 23-148, 5-Chloro-1-(4'-fluorophenyl)-3-(1-(2-imidazolidinon-1-ylethyl)-1,2,3,6-tetrahydropyridin-4-yl)-1H-indole]
[1]; [9]
  ED50: > 91 µmol/kg

## CN1CC=C(c2cn(-c3ccc(F)cc3)c3ccc(N)cc23)CC1 [Lu 23-149, 5-Amino-1-(4'-fluorophenyl)-3-(1-methyl-1,2,3,6-tetrahydropyridin-4-yl)-1H-indole, fumarate]
[1]; [9]
  ED50: 0.45 µmol/kg

## Fc1ccc(-n2cc(C3=CCNCC3)c3cc(C(F)(F)F)ccc32)cc1 [Lu 23-155, 1-(4'-Fluorophenyl)-3-(1,2,3,6-tetrahydropyridin-4-yl)-5-trifluoromethyl-1H-indole]
[1]; [9]
  ED50: 3.8 µmol/kg

## O=C1NCCN1CCN1CC=C(c2cn(-c3ccc(F)cc3)c3ccc(C(F)(F)F)cc23)CC1 [Lu 23-157, 1-(4'-Fluorophenyl)-3-(1-(2-imidazolidinon-1-ylethyl)-1,2,3,6-tetrahydropridin-4-yl)-5-trifluoromethyl-1H-indole]
[1]; [9]
  ED50: 0.37 µmol/kg
Catalepsy; [7]
  ED50: 2.6 µmol/kg
Catalepsy; [8]
  ED50: 0.49 µmol/kg
5-HT2 receptor
  Qvipaz. inh. ED50(sc): 0.12 µmol/kg

## O=C1CCCN1CCN1CCC(c2cn(-c3ccc(F)cc3)c3ccc(C(F)(F)F)cc23)CC1 [Lu 23-158, 1-(4'-Fluorophenyl)-3-(1-(1-pyrrolidin-2-onylethyl)-4-piperidyl)-5-trifluoromethyl-1H-indole, fumarate]
[1]; [12]
  ED50: 2.9 µmol/kg

## Fc1ccc(-n2cc(C3=CCNCC3)c3cc(F)ccc32)cc1 [Lu 23-159, 5-fluoro-1-(4'-fluorophenyl)-3-(1,2,3,6-tetrahydropyridin-4-yl)-1H-indole]
[1]; [9]
  ED50: 47 µmol/kg

## CC(=O)OCCN1CCN(c2cn(-c3ccc(F)cc3)c3ccc(C(F)(F)F)cc23)CC1 [Lu 23-161]
[1]; [12]
  ED50: 0.05 µmol/kg
Catalepsy; [7]
  ED50: 0.18 µmol/kg
Catalepsy; [8]
  ED50: 0.09 µmol/kg

## CCCCCCCCCC(=O)OCCN1CCN(c2cn(-c3ccc(F)cc3)c3ccc(C(F)(F)F)cc23)CC1 [Lu 23-162]
[1]; [12]
  ED50: 1.7 µmol/kg

## CCCCCCCC/C=C\CCCCCCCC(=O)OCCN1CCN(c2cn(-c3ccc(F)cc3)c3ccc(C(F)(F)F)cc23)CC1 [Lu 23-163, 1-(4'-Fluorophenyl)-3-(4-(l-oleyloxyethyl)-1-piperazino)-5-trifluoromethyl-1H-indole, dihydrochloride]
[1]; [12]
  ED50: 1.1 µmol/kg

## CC(C)N1CC=C(c2cn(-c3ccc(F)cc3)c3ccc(F)cc23)CC1 [Lu 23-167, 5-fluoro-1-(4'-fluorophenyl)-3-(1-(2-propyl)-1,2,3,6-tetrahydropyridin-4-yl)-1H-indole, fumarate]
[1]; [9]
  ED50: 2.7 µmol/kg
Catalepsy; [7]
  ED50: > 11 µmol/kg
Catalepsy; [8]
  ED50: 2.7 µmol/kg

## OCCCN1CC=C(c2cn(-c3ccc(F)cc3)c3ccc(C(F)(F)F)cc23)CC1 [Lu 23-171, 1-(4'-Fluorophenyl)-3-(1-(3-hydroxypropyl)-1,2,3,6-tetrahydropyridin-4-yl) -5trifluoromethyl-1H-indole]
[1]; [9]
  ED50: 0.11 µmol/kg

## Fc1ccc(-n2cc(C3=CCN(CCn4cccc4)CC3)c3cc(C(F)(F)F)ccc32)cc1 [Lu 23-172, 1-(4'-Fluorophenyl)-3-(1-pyrrolo-2-ethyl)-1,2,3,6-tetrahydropyridin-4-yl)-5-trifluoromethyl-1H-indole. maleate]
[1]; [9]
  ED50: > 70 µmol/kg
5-HT2 receptor
  Qvipaz. inh. ED50(sc): > 0.55 µmol/kg
[2]; read-out: 3H-Spiroperidol bindings DA-2 receptors IC50, rat striatal membranes, in vitro
  IC50: 31 nM

## Fc1ccc(-n2cc(C3=CCN(CCn4ccnc4)CC3)c3cc(C(F)(F)F)ccc32)cc1 [Lu 24-002, 1-(4'-Fluorophenyl)-3-(1-(1-imidazole-2-ethyl)-1,2,3,6-tetrahydropyridin-4-yl)-5-trifluoromethyl-1H-indole, dimaleate]
[1]; [9]
  ED50: 0.45 µmol/kg
5-HT2 receptor
  Qvipaz. inh. ED50(sc): > 0.45 µmol/kg

## CN1CC=C(c2cn(-c3cccc(F)c3)c3ccc([N+](=O)[O-])cc23)CC1 [Lu 24-004, 1-(3'-Fluorophenyl)-5-nitro-3-(1-methyl-1,2,3,6-tetrahydropyridin-4-yl)-1H-indole, maleate]
[1]; [9]
  ED50: 1.1 µmol/kg

## OCCN1CC=C(c2cn(-c3ccc(C(F)(F)F)cc3)c3ccccc23)CC1 [Lu 24-012, 3-(1-(2-Hydroxyethyl)-1,2,3,6-tetrahydropyridin-4-yl)-1-(4'-trifluoromethylphenyl-1H-indole, fumarate]
[1]; [9]
  ED50: > 20 µmol/kg

## CN1CC=C(c2cn(-c3nccs3)c3ccc(F)cc23)CC1 [Lu 24-013, 5-Fluro-3-(1-methyl-1,2,3,6-tetrahydropyridin-4-yl)-1-(2-thiazolo)-1H-indole, fumarate]
[1]; [9]
  ED50: > 20 µmol/kg

## CN1CC=C(c2cn(-c3cccs3)c3ccc([N+](=O)[O-])cc23)CC1 [Lu 24-014, 3-(1-Methyl-1,2,3,6-tetrahydropyridin-4-yl)-5-nitro-1-(2-thienyl)-1H-indole, maleate]
[1]; [9]
  ED50: > 22 µmol/kg

## CN1CC=C(c2cn(-c3ccccn3)c3ccc([N+](=O)[O-])cc23)CC1 [Lu 24-015, 3-(1-Methyl-1,2,3,6-tetrahydropyridin-4-yl)-5-nitro-1-pyridin-2-yl-1H-indole]
[1]; [9]
  ED50: 3.8 µmol/kg

## CN1CC=C(c2cn(-c3cccnc3)c3ccc([N+](=O)[O-])cc23)CC1 [Lu 24-016, 3-(1-Methyl-1,2,3,6-tetrahydropyridin-4-yl)-5-nitro-1-pyridin-3-yl-1H-indole]
[1]; [9]
  ED50: > 30 µmol/kg
